Reference: article PMC11574045, “A cofactor-induced repressive type of transcription factor condensation can be induced by synthetic peptides to suppress tumorigenesis” (The EMBO Journal, 2024)
Values joined by “and” are separate entries in the source; they are usually repeats but may differ in a detail not shown here. Equal entries are not always repeated. Ends that are not written are not given here.

Tests used:
MNU-induced GC tumors = experiment: MNU-induced gastric cancer mouse model; assay type: in vivo; set-up: Tumor area, GLUP+ / Tumor area, GLUP++: unit not given here
Experimental: For the model involving N-nitroso-N-methylurea (MNU)-induced GC, 8-week-old C57BL/6 mice received 3 cycles of MNU (TRC, Toronto, Canada) in drinking water. For each cycle, drinking water containing 240 μg/ml MNU was served to the mice for 1 week, and then normal drinking water the next week. After 19 weeks of MNU administration, mice were randomized to receive GLUP via intraperitoneal injection (i.p.) biweekly for the following 5 weeks (n = 8/group). After 24 weeks, mice were sacrificed for subsequent analysis. The tumor volume per stomach was measured.

BGC-823 cells = assay type: cell-based, human; details: 48 h
Experimental: (§1) For cell viability assays, cells were seeded into 96-well plates overnight to attach them to the plates, and then treated with GLUP for 48 h. Cells incubated for indicated periods of time were analyzed using an ATP-based CellTiter-Lumi^TM Plus kit (Beyotime) according to the manufacturer’s instructions. The intracellular ATP contents were measured using a BioTek Synergy^TM NEO multi-detector microplate reader (Thermo). Cell viability was calculated using the equation cell viability (%) = [[value (test) − value (blank)] × [value (control) − value (blank)]] −1 × 100.

GES-1 cells = assay type: cell-based, human; details: 48 h
Experimental: as §1

SNU-216 cells = assay type: cell-based, human; details: 48 h
Experimental: as §1

MKN-28 cells = assay type: cell-based, human; details: 48 h
Experimental: as §1

MGC-803 cells = assay type: cell-based, human; details: 48 h
Experimental: as §1

AZ-521 cells = assay type: cell-based, human; details: 48 h
Experimental: as §1

AGS cells = assay type: cell-based, human; details: 48 h
Experimental: as §1

SH-10-TC cells = assay type: cell-based, human; details: 48 h
Experimental: as §1

MKN-45 cells = assay type: cell-based, human; details: 48 h
Experimental: as §1

HGC-27 cells = assay type: cell-based, human
Experimental: as §1

[1] = test system: GFP-TEAD4 condensates in HEK293FT cells; experiment: GFP-TEAD4 condensate imaging, condensed fraction in cells; assay type: cell-based; details: HEK293FT, GLUP 10 μg/ml (5 μM) 12 h; individual cells, n = 9
[2] = Toxicity analysis (blood testing, blood biochemistry, pathology); assay type: in vivo, mouse; details: BALB/c mice, GLUP 1 or 10 mg/kg i.p. every 2 days, 14 days
Experimental: Healthy BALB/c mice (~8 weeks, n = 5) were injected intraperitoneally with GLUP (1, 10 mg/kg, respectively, every 2 days), and mice of the control group were injected with saline (10 ml/kg, n = 5). The mice were continuously observed for 14 days after the administration and then sacrificed for routine blood testing (of white blood cells, red blood cells, platelets, lymphocytes, monocytes, and neutrophils), examination of the blood biochemistry (hemoglobin, albumin, glucose, creatinine, urea, AST, and ALT) and pathology examination.

TEAD4 = target: T1, TEAD4 (Homo sapiens, UniProt Q15561); experiment: FRAP of TEAD4 droplets formed from purified protein; assay type: biochemical; details: purified TEAD4 protein treated with FAM-GLUP
T1 construct: His; made in house; host or cells: Escherichia coli BL21(DE3)
From the text: (A) Schematic of the strategy of the initial version of a linker peptide termed “glup”. […] The two TEAD4 molecules are colored cyan and blue, respectively. […] Monomer, dimer, and oligomer TEAD4 bands are labeled. (D) Schematic illustration of an optimized version of the linker peptide (referred to as GLUP). […] (F) Comparison of glup with GLUP. MW, molecular weight. […] The quantification graph represents the data collected from 10 images (n = 10). Data shown as means ± SD represent the representative results from two independent experiments. Significance was tested using one-way ANOVA, followed by the Tukey’s post-hoc test. *p < 0.05; ****p < 0.0001. NaCl (+), 20 mM; NaCl (++), 150 mM; NaCl (+++), 500 mM. Scale bar, 10 μm. […] For each photobleached spot, the fluorescence recovery curve was traced. The graph represents the data collected from 5 droplets (n = 5). t1/2: fluorescence recovery time; Rf: mobile fraction. […] The quantification graph represents the data collected from 9 cells (n = 9). […] The data were analyzed using one-way ANOVA, followed by the Tukey’s post-hoc test. n.s., no significance; ****p < 0.0001. […] Three images were gradually taken during pre-bleach, bleaching pulses, followed by fluorescence recovery as indicated on the graph (left). […] White circles indicated the bleaching condensates. t1/2: fluorescence recovery time; Rf: mobile fraction. […]

T1 sequence (Q15561 whole entry): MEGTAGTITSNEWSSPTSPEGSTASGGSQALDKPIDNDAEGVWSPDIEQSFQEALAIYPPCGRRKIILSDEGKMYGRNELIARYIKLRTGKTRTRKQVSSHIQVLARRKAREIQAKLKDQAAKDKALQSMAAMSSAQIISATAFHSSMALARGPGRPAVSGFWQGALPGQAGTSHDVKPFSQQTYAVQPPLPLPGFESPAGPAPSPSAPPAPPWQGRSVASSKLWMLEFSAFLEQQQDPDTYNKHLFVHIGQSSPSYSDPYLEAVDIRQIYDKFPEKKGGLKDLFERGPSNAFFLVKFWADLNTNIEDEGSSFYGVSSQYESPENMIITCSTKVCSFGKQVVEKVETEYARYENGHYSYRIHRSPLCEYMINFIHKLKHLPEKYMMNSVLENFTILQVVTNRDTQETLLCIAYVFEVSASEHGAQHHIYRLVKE

In the case of “RRVCVHFHFSLSLR-NH2 (C-terminus assumed) [glup]”, the “Average tumor area vs control” value (MNU-induced GC tumors; MNU-induced GC mice, 5-week GLUP treatment) is reported as “much smaller than that in control mice”, the Gastric mucosa histology (MNU-induced GC tumors; MNU-induced GC mice, high dose GLUP 5 mg/kg) is reported as “almost normal gastric mucosa” and the “Tumor area, GLUP+” value (MNU-induced GC tumors; MNU-induced GC, C57BL/6 mice, 1 mg/kg GLUP biweekly for 5 weeks, individual mice (source data Fig 7B), 1 mg/kg) is reported as 28.125 and 40.5 and 20.5 and 4.5 and 6.5 and 16.2. For the same substance, the “Tumor area, GLUP++” value (MNU-induced GC tumors; MNU-induced GC, C57BL/6 mice, 5 mg/kg GLUP biweekly for 5 weeks, individual mice (source data Fig 7B), 5 mg/kg) was 4.5 and 2.5315 and 0.5 and 0, the IC50 (BGC-823 cells) was 26.1 µg/mL and the IC50 (GES-1 cells) was 13.1 µg/mL. For the same substance, the IC50 (SNU-216 cells) was 23.4 µg/mL, the IC50 (MKN-28 cells) was 6.7 µg/mL and the IC50 (MGC-803 cells) was 2.5 µg/mL. The IC50 (AZ-521 cells) was 8.1 µg/mL, the IC50 (AGS cells) was 34 µg/mL and the IC50 (SH-10-TC cells) was 26.3 µg/mL. The IC50 (MKN-45 cells) was 7.3 µg/mL, the Cell death (HGC-27 cells; HGC-27, 0.1 µg/ml GLUP, 48 h (peer review file, Figure R22C)) was roughly 60% and the “Suppression of cell growth with or without YAP (5SA) overexpression” value (HGC-27 cells; HGC-27, 0.1/1 µg/ml GLUP (peer review file, Figure R23)) was “regardless of YAP (5SA) expression”. For the same substance, the “Condensed fraction of GFP-TEAD4” value [1] was 25.1852% and 50.001% and 27.6986% and 34.6228% and 22.4908% and 43.1106% and 47.5218% and 38.4928% and 44.4447%, the “Blood findings upon GLUP treatment” value [2] was “a range of blood biochemical abnormalities e.g., in numbers of platelets and neutrophils” and the “mobile fraction (FRAP)” value (TEAD4) was “about 86%”.
